Test results as given in US6593084B2, “Carcinogen assay” (priority 1998, dated 2003).

Tests used:
mouse liver = assay: Differential gene expression in livers of DMBA treated mice, Atlas membranes; conditions: liver of DMBA treated animal vs control animal
mice = conditions: cited from earlier work
Salmonella = conditions: cited from earlier work
mammalian cells = mammalian cells in vitro; cited from earlier work
[1] = tested on: primary mouse keratinocytes; assay: Differential display and Northern blot hybridization of mRNAs in treated primary mouse keratinocytes; format: cell-based; conditions: 24 hours treatment
Description: Cultures of newborn mouse keratinocytes were established essentially as described by H. Hennings (In Keratinocyte Methods, Cambridge University Press (1994), pages 21-23). Briefly, mice two to three days postpartum were sacrificed by metaphane narcosis, rinsed in 70% ethanol, and kept on ice. Skins were peeled off, stretched out and floated (with epidermis facing upward) on the surface of a 0.25% trypsin solution in Ca^+2, Mg^+2 free PBS overnight at 4° C. Skins were transferred to a sterile surface, the epidermis was separated from dermis, the epidermis was minced, and the mixture stirred in serum-free keratinocyte growth medium (KGM, Clonetics). This cell suspension was filtered through nylon gauze, cells were centrifuged (2,000 rpm for 5 min), resuspended in KGM with 20 μM Ca^+2 (20 KGM), and then the cells were counted and plated (approximately 2×10^6 per 10 cm plate coated with mouse collagen type IV in 20 KGM) and the cell cultures were incubated at 37° C. with a 7% CO2. After 16-24 hours, cells were washed in Ca^+2, Mg^+2 free phosphate buffered saline (PBS), and cultivated on 20 KGM, with the cell culture medium changed (that is, old medium discarded and fresh medium provided) each other day. For induction of terminal differentiation, medium was changed, usually on the sixth day of cultivation of the keratinocytes, to KGM containing 1.2 mM Ca^+2, and the keratinocytes were cultivated for 24 hours before RNA isolation.
For phorbol-myristate acetate (TPA) treatment, keratinocyte cultures were fed with 20 KGM containing 0.1 μg/ml of 12-O-tetradecanoyil-13-phorbol-acetate for 24 hours, before isolation of RNA.
Total RNA was isolated by acid phenol procedure using TRI Reagent™ (Molecular Research Center, Inc.) and according to manufacturer's instructions from (1) terminally differentiated keratinocytes, cultivated in KGM medium containing 1.2 mM Ca^+2 for 24 hours; (2) TPA-treated keratinocytes, cultivated in KGM containing 20 μM Ca^+2 and 0.1 μg/ml TPA for 24 hours; and (3) control keratinocyte cultures fed 24 hours before RNA isolation with 20 KGM containing, in some experiments, 0.05% DMSO (dimethyl sulphoxide).
Differential display of total RNAs from keratinocyte cultures (1), (2), and (3) was performed with Delta-RNA Fingerprinting Kit™ (Clontech) according to the manufacturer's instructions. Briefly, cDNAs were synthesized from total RNAs using Murine Moloney Leukemia Virus (MMLV) reverse transcriptase. Two dilutions of cDNA were prepared (diluted 10-fold and 40-fold). Each total RNA sample was used to synthesize cDNA that was amplified using polymerase chain reaction (PCR) methodology using P & T primers in presence of [α-^33P] dATP. […] The appearance of a band from a sample that was not present in the control lane indicated overexpression and the disappearance or reduction in intensity of a band indicated suppression of synthesis. The candidate bands were cut from the sequencing gel and reamplified using the original primer pairs. Following electrophoresis on agarose gels, reamplified DNA fragments were cut out and purified using a QIAEX II gel extraction kit™ (QIAGEN). The DNAs were labeled and used to confirm the differential expression by hybridization with Northern blots of Poly (A)^+ containing RNA isolated from total RNAs (1), (2), and (3). Equal quantities of these RNAs were electrophoresed on agarose gels and blotted to nitrocellulose filters. Equal loading of RNA was confirmed by hybridization with a β-actin probe, whose mRNA was assumed to be present in approximately equal amounts in all of the preparations. The blots were stripped of radiolabel and then used to confirm the differential synthesis of a fragment. Upon confirmation, the fragment was cloned into pCRII using the TA cloning kit™ (Introvitrogen). Cloned DNA fragments were sequenced with SequiTerm Excel II kit™ (Epicentre Technology).

For `Cc1c2ccccc2c(C)c2c1ccc1ccccc12` [DMBA, 7, 12-dimethyl benz[α] anthracene], which “differential pattern of gene expression in liver” value (mouse liver) is on record?
Its value is “differential expression was observed”.

With `c1ccoc1` [Furan] as the molecule, how does the “induction of hepatocellular carcinomas” value (mice) read?
The value was “induce hepatocellular carcinomas”.

What about the Salmonella mutagenicity test (Salmonella) of the same molecule?
The Salmonella mutagenicity test was “negative”.

What about the chromosomal aberrations (mammalian cells) of the same molecule?
The chromosomal aberrations was “induces”.

And the gene mutations (mammalian cells)?
The gene mutations was “induces”.

And the sister chromatide exchanges (mammalian cells)?
The sister chromatide exchanges was “induces”.

Which “induction of hepatocellular carcinomas” value (mice) does the source give for `ClC=C(Cl)Cl` [TCE, trichloroethylene] here?
The value was “induce hepatocellular carcinomas”.

What about the Salmonella mutagenicity test (Salmonella) of the same molecule?
Its Salmonella mutagenicity test is “negative”.

With `CCCCCCCCCCCCCC(=O)O[C@@H]1[C@@H](C)[C@@]2(O)[C@@H](C=C(CO)C[C@]3(O)C(=O)C(C)=C[C@@H]23)[C@@H]2C(C)(C)[C@]12OC(C)=O` [TPA, 12-O-tetradecanoyil-13-phorbol-acetate] as the molecule, how does the “Changes in Expression (Comparative to Untreated cells)” value (“Changes in Expression” for short) ([1]; gene fragment 2552/4, 5.5 kb RNA) read?
The value was “Suppressed in TPA-”.

And the “Changes in Expression” value ([1]; gene fragment 2672/1, Mouse ESTs AA492919, AA607761)?
Its value is “Suppressed in TPA-”.

And the “Changes in Expression” value ([1]; gene fragment 4314, AA109991, AA561914, AA067670, AA864127)?
The value was “Overexpressed in”.

And the “Changes in Expression” value ([1]; gene fragment 19102/3, Mouse ESTs AA038613, W14382)?
Its value is “Suppressed in TPA-”.

What about the “Changes in Expression” value ([1]; gene fragment 31774/6/8, 6 kb RNA, Mouse ESTs AA423711, W82493) of the same molecule?
Its value is “Suppressed in TPA-”.

What about the “Changes in Expression” value ([1]; gene fragment 31777, Mouse EST AA073833) of the same molecule?
Its value is “Overexpressed in”.

What about the “Changes in Expression” value ([1]; gene fragment 83442, Mouse Connexin 26) of the same molecule?
The value was “Overexpressed in”.

And the “Changes in Expression” value ([1]; gene fragment 110176/4, homologous to Mouse Cytokeratin Endo A)?
Its value is “Suppressed in TPA-”.

What about the “Changes in Expression” value ([1]; gene fragment 3177715, Mouse ESTs AA423711, AA637015) of the same molecule?
Its value is “Suppressed in TPA-”.
